From ChEMBL document CHEMBL5247618, “Discovery and optimization of 4-anilinoquinazoline derivatives spanning ATP binding site and allosteric site as effective EGFR-C797S inhibitors” (Eur J Med Chem, 2022)

Key:
in vivo [1] = conditions: Sprague-Dawley, rat, po, 10 mg/kg
in vivo [2] = conditions: Sprague-Dawley, rat, iv, 1 mg/kg
in vivo [3] = conditions: Sprague-Dawley, rat, iv, 1 mg/kg; remark: listed apart in the source
in vivo [4] = conditions: Sprague-Dawley, rat, po, 10 mg/kg; remark: listed apart in the source

SMILES: COc1cc2c(Nc3ccc(Oc4ccccc4)cc3)ncnc2cc1OCC1CCN(C)CC1
- bioavailability (in vivo [1]): 9.33%
- Cmax (in vivo [2]): 69.6 ng/mL
- half-life (in vivo [3]): 1.97 h
- Cmax (in vivo [4]): 7.43 ng/mL
